Test results from US5854216A, “Marker for growth hormone-releasing factor receptors” (Universite de Montreal, priority 1996, dated 1998).
Blank lines part the entries; values can stand above or below the compound they belong to. Square brackets hold non-standard residues; d marks the D form. Peptide text beside a SMILES is read from it. Bpa = N[C@@H](Cc1ccc(C(=O)c2ccccc2)cc1)C(=O)O; Nle = CCCC[C@H](N)C(=O)O

Target: T1, GRF receptors ([^125 I-Tyr^10 ]hGRF(1-44)NH2 binding sites in rat adenopituitary) (Rattus norvegicus, UniProt Q02644)
T1 construct: from tissue; host or cells: rat anterior pituitary homogenate
T1 sequence (Q02644 23-423 isoform Q02644-2 limits assumed): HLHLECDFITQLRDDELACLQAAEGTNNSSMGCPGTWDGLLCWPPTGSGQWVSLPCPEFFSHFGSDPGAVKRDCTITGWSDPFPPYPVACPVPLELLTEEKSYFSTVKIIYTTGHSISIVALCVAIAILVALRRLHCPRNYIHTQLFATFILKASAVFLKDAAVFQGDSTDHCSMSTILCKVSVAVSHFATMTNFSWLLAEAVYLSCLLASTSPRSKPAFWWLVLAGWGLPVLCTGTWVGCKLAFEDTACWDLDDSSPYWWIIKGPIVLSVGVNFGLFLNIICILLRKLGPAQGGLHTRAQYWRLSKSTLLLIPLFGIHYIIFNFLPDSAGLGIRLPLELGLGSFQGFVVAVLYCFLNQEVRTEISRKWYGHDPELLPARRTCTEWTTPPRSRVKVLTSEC
Test: Competitive binding assay with [^125 I-Tyr^10 ]hGRF(1-44)NH2 on anterior pituitary homogenates
Conditions: for Relative affinity: ratio IC50 of hGRF(1-29)NH2 /IC50 analogue; for biological activity compared to that of native GRF: rat adenopituitary
Description: The binding of [^125 I-Tyr^10 ]hGRF(1-44)NH2 was performed on anterior pituitary homogenates as previously described (Gaudreau P. et al., J. Biol. Chem., 1992, 35:1864-1869). Briefly, anterior pituitaries (pit.) were dissected out, rinsed and homogenized for 8 sec with a Micro Ultrasonic Cell Disrupter™, in ice-cold 50 mM Tris-HCl buffer, pH 7.4, containing 5 mM MgCl2 and 5 mM EDTA (1 pit./0.5 ml). These homogenates were used immediately. Competition studies were performed using 35-50 pM [^125 I-Tyr^10 ]hGRF(1-44)NH2 as radio-ligand,50 μl of homogenate (70 to 75 μg of protein), and increasing concentrations of Nε-CF-[Lys^31 ]hGRF or other GRF analogues (0-1000 nM) or with 2.4 μM rGRF(1-29)NH2 for determination of non-specific binding, in a total volume of 300 μl of Tris-HCl buffer, pH 7.4, containing 5 mM EDTA, 5 mM MgCl2 and 0.42% BSA. Incubations were carried out at 23° C. for 60 min and stopped by centrifugation (12,000 g, 5 min, at 4° C.). The radioactivity content in the pellet was measured by gamma counting. The affinity of hGRF(1-29)NH2 was tested in each experiment to assess the validity of the assay and determine the relative affinity of the analogues. […] The Hill values indicate that all these peptides bind to the high and low affinity GRF binding sites found in the anterior pituitary.

[1] = Table 11, mean±SD of 2 or mean±SE of 3 experiments for analogues, mean±SE of 11 for hGRF(1-29)NH2

SMILES: CCCC[C@H](NC(=O)[C@@H](NC(=O)[C@H](CC(=O)O)NC(=O)[C@H](CCC(N)=O)NC(=O)[C@H](CC(C)C)NC(=O)[C@H](CC(C)C)NC(=O)[C@H](CCCCN)NC(=O)[C@H](CCCNC(=N)N)NC(=O)[C@H](C)NC(=O)[C@H](CO)NC(=O)[C@H](CC(C)C)NC(=O)[C@H](CCC(N)=O)NC(=O)CNC(=O)[C@H](CC(C)C)NC(=O)[C@@H](NC(=O)[C@H](CCCCN)NC(=O)[C@H](CCCNC(=N)N)NC(=O)[C@H](Cc1ccc(O)cc1)NC(=O)[C@H](Cc1ccc(C(=O)c2ccccc2)cc1)NC(=O)[C@H](CC(N)=O)NC(=O)[C@@H](NC(=O)[C@H](Cc1ccccc1)NC(=O)[C@@H](NC(=O)[C@H](C)NC(=O)[C@H](CC(=O)O)NC(=O)[C@H](C)NC(=O)[C@@H](N)Cc1c[nH]cn1)[C@@H](C)CC)[C@@H](C)O)C(C)C)[C@@H](C)CC)C(=O)N[C@@H](CO)C(=O)N[C@@H](CCCNC(=N)N)C(N)=O [His^1, bpa^9, Nle^27] (H-HADAIFTN[Bpa]YRKVLGQLSARKLLQDI[Nle]SR-NH2)
Hill coef. (Table 7): 0.70 ± 0.06 | Relative affinity (Table 7): 61.0 ± 7%

SMILES: CC[C@H](C)[C@H](NC(=O)[C@H](C)NC(=O)[C@H](CC(=O)O)NC(=O)[C@H](C)NC(=O)[C@@H](N)Cc1ccc(O)cc1)C(=O)N[C@@H](Cc1ccccc1)C(=O)N[C@H](C(=O)N[C@@H](CC(N)=O)C(=O)N[C@@H](CO)C(=O)N[C@@H](Cc1ccc(O)cc1)C(=O)N[C@@H](CCCNC(=N)N)C(=O)N[C@@H](CCCCN)C(=O)N[C@H](C(=O)N[C@@H](CC(C)C)C(=O)NCC(=O)N[C@@H](CCC(N)=O)C(=O)N[C@@H](CC(C)C)C(=O)N[C@@H](CO)C(=O)N[C@@H](C)C(=O)N[C@@H](CCCNC(=N)N)C(=O)N[C@@H](CCCCN)C(=O)N[C@@H](CC(C)C)C(=O)N[C@@H](CC(C)C)C(=O)N[C@@H](CCC(N)=O)C(=O)N[C@@H](CC(=O)O)C(=O)N[C@H](C(=O)N[C@@H](CCSC)C(=O)N[C@@H](CO)C(=O)N[C@@H](CCCNC(=N)N)C(=O)NCCCCCCCC(=O)N[C@@H](CS)C(N)=O)[C@@H](C)CC)C(C)C)[C@@H](C)O [Octanoyl^30, Cys^31, [octanoyl^30,Cys^31] hGRF(1-29)NH2]
IC50 [1]: 6.84 ± 2.12 nM

SMILES: CC[C@H](C)[C@H](NC(=O)[C@H](C)NC(=O)[C@H](CC(=O)O)NC(=O)[C@H](C)NC(=O)[C@H](Cc1ccc(O)cc1)NC(=S)Nc1ccc(-c2c3ccc(=O)cc-3oc3cc(O)ccc23)c(C(=O)O)c1)C(=O)N[C@@H](Cc1ccccc1)C(=O)N[C@H](C(=O)N[C@@H](CC(N)=O)C(=O)N[C@@H](CO)C(=O)N[C@@H](Cc1ccc(O)cc1)C(=O)N[C@@H](CCCNC(=N)N)C(=O)N[C@@H](CCCCN)C(=O)N[C@H](C(=O)N[C@@H](CC(C)C)C(=O)NCC(=O)N[C@@H](CCC(N)=O)C(=O)N[C@@H](CC(C)C)C(=O)N[C@@H](CO)C(=O)N[C@@H](C)C(=O)N[C@@H](CCCNC(=N)N)C(=O)N[C@@H](CCCCN)C(=O)N[C@@H](CC(C)C)C(=O)N[C@@H](CC(C)C)C(=O)N[C@@H](CCC(N)=O)C(=O)N[C@@H](CC(=O)O)C(=O)N[C@H](C(=O)N[C@@H](CCSC)C(=O)N[C@@H](CO)C(=O)N[C@@H](CCCNC(=N)N)C(N)=O)[C@@H](C)CC)C(C)C)[C@@H](C)O [[Nα-fluorescein-5-thiocarbamyl]hGRF(1-29)NH2]
Hill coef. (Table 4): 0.61 ± 0.05 | Relative affinity (Table 4): 19 ± 11%

Continued, values first:

Hill coef. (Table 11): 0.64 ± 0.05 | Relative affinity (Table 11): 21 ± 11% | biological activity compared to that of native GRF: preserved or increased
SMILES: CC[C@H](C)[C@H](NC(=O)[C@H](C)NC(=O)[C@H](CC(=O)O)NC(=O)[C@@H](C)NC(=O)[C@@H](N)Cc1ccc(O)cc1)C(=O)N[C@@H](Cc1ccccc1)C(=O)N[C@H](C(=O)N[C@@H](CC(N)=O)C(=O)N[C@@H](CO)C(=O)N[C@H](Cc1ccc(O)cc1)C(=O)N[C@@H](CCCNC(=N)N)C(=O)N[C@@H](CCCCN)C(=O)N[C@H](C(=O)N[C@@H](CC(C)C)C(=O)NCC(=O)N[C@@H](CCC(N)=O)C(=O)N[C@@H](CC(C)C)C(=O)N[C@@H](CO)C(=O)N[C@@H](C)C(=O)N[C@@H](CCCNC(=N)N)C(=O)N[C@H](CCCCN)C(=O)N[C@@H](CC(C)C)C(=O)N[C@@H](CC(C)C)C(=O)N[C@@H](CCC(N)=O)C(=O)N[C@@H](CC(=O)O)C(=O)N[C@H](C(=O)N[C@@H](CCSC)C(=O)N[C@@H](CO)C(=O)N[C@@H](CCCNC(=N)N)C(N)=O)[C@@H](C)CC)C(C)C)[C@@H](C)O [D-Ala^2, D-Tyr^10, D-Lys^21]

IC50 [1]: 0.49 ± 0.27 nM
SMILES: CC[C@H](C)[C@H](NC(=O)[C@H](C)NC(=O)[C@H](CC(=O)O)NC(=O)[C@@H](C)NC(=O)[C@@H](N)Cc1ccc(O)cc1)C(=O)N[C@@H](Cc1ccccc1)C(=O)N[C@H](C(=O)N[C@@H](CC(N)=O)C(=O)N[C@@H](CO)C(=O)N[C@H](Cc1ccc(O)cc1)C(=O)N[C@@H](CCCNC(=N)N)C(=O)N[C@@H](CCCCN)C(=O)N[C@H](C(=O)N[C@@H](CC(C)C)C(=O)NCC(=O)N[C@@H](CCC(N)=O)C(=O)N[C@@H](CC(C)C)C(=O)N[C@@H](CO)C(=O)N[C@@H](C)C(=O)N[C@@H](CCCNC(=N)N)C(=O)N[C@@H](CCCCN)C(=O)N[C@@H](CCCCN)C(=O)N[C@@H](CC(C)C)C(=O)N[C@@H](CCC(N)=O)C(=O)N[C@@H](CC(=O)O)C(=O)N[C@H](C(=O)N[C@@H](CCSC)C(=O)N[C@@H](CO)C(=O)N[C@@H](CCCNC(=N)N)C(N)=O)[C@@H](C)CC)C(C)C)[C@@H](C)O [D-Ala^2, D-Tyr^10, Lys^22] (H-Y[dA]DAIFTNS[dY]RKVLGQLSARKKLQDIMSR-NH2)

Hill coef. (Table 11): 0.41 ± 0.02 | Relative affinity (Table 11): 25 ± 3% | biological activity compared to that of native GRF: preserved or increased
SMILES: CC[C@H](C)[C@H](NC(=O)[C@H](C)NC(=O)[C@H](CC(=O)O)NC(=O)[C@@H](C)NC(=O)[C@@H](N)Cc1ccc(O)cc1)C(=O)N[C@@H](Cc1ccccc1)C(=O)N[C@H](C(=O)N[C@@H](CC(N)=O)C(=O)N[C@@H](CO)C(=O)N[C@H](Cc1ccc(O)cc1)C(=O)N[C@@H](CCCNC(=N)N)C(=O)N[C@@H](CCCCN)C(=O)N[C@H](C(=O)N[C@@H](CC(C)C)C(=O)NCC(=O)N[C@@H](CCC(N)=O)C(=O)N[C@@H](CC(C)C)C(=O)N[C@@H](CO)C(=O)N[C@@H](C)C(=O)N[C@@H](CCCNC(=N)N)C(=O)N[C@@H](CCCCN)C(=O)N[C@@H](CC(C)C)C(=O)N[C@@H](CC(C)C)C(=O)N[C@@H](CCC(N)=O)C(=O)N[C@@H](CC(=O)O)C(=O)N[C@H](C(=O)N[C@@H](CCSC)C(=O)N[C@@H](CO)C(=O)N[C@@H](CCCNC(=N)N)C(N)=O)[C@@H](C)CC)C(C)C)[C@@H](C)O [D-Ala^2, D-Tyr^10]

affinity for adenopituitary GRF receptors (in words): nanomolar affinity | Hill coef. (Table 4): 0.63 ± 0.07 | IC50 (Table 4, mean±SD of 2 experiments in triplicate for analogues, mean±SE of 29 experiments for hGRF(1-29)NH2): 14 ± 4 nM | Relative affinity (Table 4): 19 ± 5%
SMILES: CC[C@H](C)[C@H](NC(=O)[C@H](C)NC(=O)[C@H](CC(=O)O)NC(=O)[C@H](C)NC(=O)[C@H](Cc1ccc(O)cc1)NC(=S)Nc1ccc2c(c1)C(=O)OC21c2ccc(O)cc2Oc2cc(O)ccc21)C(=O)N[C@@H](Cc1ccccc1)C(=O)N[C@H](C(=O)N[C@@H](CC(N)=O)C(=O)N[C@@H](CO)C(=O)N[C@@H](Cc1ccc(O)cc1)C(=O)N[C@@H](CCCNC(=N)N)C(=O)N[C@@H](CCCCN)C(=O)N[C@H](C(=O)N[C@@H](CC(C)C)C(=O)NCC(=O)N[C@@H](CCC(N)=O)C(=O)N[C@@H](CC(C)C)C(=O)N[C@@H](CO)C(=O)N[C@@H](C)C(=O)N[C@@H](CCCNC(=N)N)C(=O)N[C@@H](CCCCN)C(=O)N[C@@H](CC(C)C)C(=O)N[C@@H](CC(C)C)C(=O)N[C@@H](CCC(N)=O)C(=O)N[C@@H](CC(=O)O)C(=O)N[C@H](C(=O)N[C@@H](CCSC)C(=O)N[C@@H](CO)C(=O)N[C@@H](CCCNC(=N)N)C(=O)N[C@@H](CCC(N)=O)C(=O)N[C@@H](CCC(N)=O)C(=O)NCC(=O)N[C@@H](CCC(=O)O)C(=O)N[C@@H](CO)C(=O)N[C@@H](CC(N)=O)C(=O)N[C@@H](CCC(N)=O)C(=O)N[C@@H](CCC(=O)O)C(=O)N[C@@H](CCCNC(=N)N)C(=O)NCC(=O)N[C@@H](C)C(=O)N[C@@H](CCCNC(=N)N)C(=O)N[C@@H](C)C(=O)N[C@@H](CCCNC(=N)N)C(=O)N[C@@H](CC(C)C)C(N)=O)[C@@H](C)CC)C(C)C)[C@@H](C)O [[Nα-fluorescein-5-thiocarbamyl]hGRF(1-44)NH2]
